{
  "source": "patent US5514648A",
  "about": "“Fungicidally active compounds” (priority 1990, dated 1996)",
  "origin": "cited, not measured here",
  "key": {"[1]": {"test_system": "Staphylococcus aureus", "settings": "against Staphylococcus aureus; cited from earlier work"}, "[2]": {"test_system": "Penicillium digitalum", "settings": "spore germination test with Penicillium digitalum; cited from earlier work"}, "[3]": {"test_system": "Bacillus subtilis", "settings": "against Bacillus subtilis; cited from earlier work"}, "[4]": {"test_system": "Escedchia coli", "settings": "against Escedchia coli; cited from earlier work"}},
  "data": [
    {"smiles": "CC1CCCCCC(=O)c2c(O)cc(O)cc2CC(=O)O1", "note": "(stereo not shown) [curvularin, Curvularin]", "values": [
      {"measurement": "anti-bacterial activity", "setting": "[1]", "value": "Neither curvularin nor the crude filtrates from Curvularia showed"},
      {"measurement": "anti-fungal activity", "setting": "[2]", "value": "Neither curvularin nor the crude filtrates from Curvularia showed"},
      {"measurement": "anti-bacterial activity", "setting": "[3]", "value": "Neither curvularin nor the crude filtrates from Curvularia showed"},
      {"measurement": "anti-bacterial activity", "setting": "[4]", "value": "Neither curvularin nor the crude filtrates from Curvularia showed"}
    ]}
  ]
}
